For 51 compounds, EC50 results are on record in patent publication US10336735B2, “Small molecule inhibitors of fibrosis” (THE CALIFORNIA INSTITUTE FOR BIOMEDICAL RESEARCH, priority 2014, dated 2019).

The subject of this test is primary human lung fibroblasts and primary rodent HSCs. The test is described as follows: High content imaging assay (α-SMA staining, cell morphology) of fibroblast to myofibroblast transdifferentiation, confirmed by Western blot and RT-PCR. As to conditions: Homo sapiens, Fibroblast; imaging and western based activity. In outline:
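Primary human lung fibroblasts and primary rodent HSCs were serum-starved and then TGF-β-treated to drive transdifferentiation in 384-well format, with SB-431542 as positive control. Readouts were α-SMA immunofluorescence and cell morphology by high-content imaging, confirmed by Western blot and RT-PCR in 4-day, 4-point dose-response assays; EC50 values are graded.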
(A western blot detects proteins with antibodies after separation by electrophoresis.)
The EC50 is the concentration needed to bring the measured effect to its halfway point. Read a low EC50 as greater potency. Take `CCC(CC)n1ncn(-c2ccc(N3CCN(c4ccc(OC[C@@H]5CO[C@@](Cn6nccn6)(c6ccc(Cl)cc6Cl)O5)cc4C#N)CC3)cc2)c1=O` [Compound 152]: the EC50 is 5 to 30 µM.
The compound `CCC(C)n1ncn(-c2ccc(N3CCN(c4ccc(OC[C@H]5CO[C@](Cn6nccn6)(c6ccccc6)C5)cc4F)CC3)cc2)c1=O` (stereo partly drawn) [Compound 148] displayed an EC50 of over 30 µM.
Consider `CCC(C)n1ncn(-c2ccc(N3CCN(c4ccc(OC[C@@H]5CO[C@@](Cn6nccn6)(c6cccc(Cl)c6Cl)O5)cc4)CC3)cc2)c1=O` (stereo partly drawn) [Compound 29], for which the EC50 was under 0.5 µM.
In the case of `CC(=O)N1CCN(c2ccc(OC[C@@H]3CO[C@@](Cn4nccn4)(c4ccc(Cl)cc4Cl)O3)cc2)CC1` [Compound 4], the concentration giving a half-maximal response (EC50) is over 30 µM.
On to `CCC(C)n1ncn(-c2ccc(N3CCN(c4ccc(OC[C@@H]5CO[C@@](Cc6ccnnc6)(c6ccccc6OC)O5)cc4)CC3)cc2)c1=O` (stereo partly drawn) [Compound 127], for which the EC50 was under 0.5 µM.
In turn, `CCC(C)n1ncn(-c2ccc(N3CCN(c4ccc(OC[C@@H]5CO[C@@](Cn6cccn6)(c6ccc(S(N)(=O)=O)cc6)O5)cc4)CC3)cc2)c1=O` (stereo partly drawn) [Compound 99] displayed an EC50 of 5 to 30 µM.
As for `CCC(C)n1ncn(-c2ccc(N3CCN(c4ccc(OC[C@@H]5CO[C@@](Cc6ccnnc6)(c6cc(Cl)cc(Cl)c6)O5)cc4)CC3)cc2)c1=O` (stereo partly drawn) [Compound 139], the EC50 is under 0.5 µM.
The compound `CCC(C)n1ncn(-c2ccc(N3CCN(c4ccc(OC[C@@H]5CO[C@@](CCl)(c6ccc(Cl)cc6Cl)O5)cc4)CC3)cc2)c1=O` (stereo partly drawn) [Compound 39] displayed an EC50 of 0.5 to 5 µM.
Compound `N#Cc1cc(OC[C@@H]2CO[C@@](Cn3nccn3)(c3ccccc3)O2)ccc1N1CCN(c2ccc(-n3cnn(CC4CCCC4)c3=O)cc2)CC1` [Compound 156] displayed a half-maximal effective concentration (EC50) of 0.5 to 5 µM.
The same measure for `CCC(C)n1ncn(-c2ccc(N3CCN(c4ccc(OC[C@@H]5CO[C@@](Cn6ncc7ccccc76)(c6ccc(Cl)cc6Cl)O5)cc4)CC3)cc2)c1=O` (stereo partly drawn) [Compound 49]: 0.5 to 5 µM.
With `CCC(C)n1ncn(-c2ccc(N3CCN(c4ccc(OC[C@@H]5CO[C@@](Cn6nccn6)(c6cc(C#N)ccc6C)O5)cc4)CC3)cc2)c1=O` (stereo partly drawn) [Compound 28], the EC50 lay within 5 to 30 µM.
Compound `CCC(C)n1ncn(-c2ccc(N3CCN(c4ccc(OC[C@@H]5CO[C@](Cc6ccnnc6)(c6ccc(OC(F)(F)F)cc6)O5)cc4)CC3)cc2)c1=O` (stereo partly drawn) [Compound 115] had an EC50 of 0.5 to 5 µM.
For the compound `CCC(C)n1ncn(-c2ccc(N3CCN(c4ccc(OC[C@@H]5CO[C@@](Cn6cccn6)(c6ccc(Cl)c(Cl)c6)O5)cc4)CC3)cc2)c1=O` (stereo partly drawn) [Compound 84], the EC50 was in the range of 0.5 to 5 µM.
As for `CCC(C)n1ncn(-c2ccc(N3CCN(c4ccc(OC[C@@H]5CO[C@@](Cn6cccn6)(c6ccc(C#N)cc6)O5)cc4)CC3)cc2)c1=O` (stereo partly drawn) [Compound 89], the concentration for a half-maximal effect (EC50) is 0.5 to 5 µM.
As for `CCC(C)n1ncn(-c2ccc(N3CCN(c4ccc(OC[C@@H]5CO[C@@](Cn6nccn6)(c6ccc(C#N)cc6C)O5)cc4)CC3)cc2)c1=O` (stereo partly drawn) [Compound 24], the figure is 0.5 to 5 µM.
`CCC(C)n1ncn(-c2ccc(N3CCN(c4ccc(OC[C@@H]5CO[C@](Cc6ccnnc6)(c6ccccc6C(F)(F)F)O5)cc4)CC3)cc2)c1=O` (stereo partly drawn) [Compound 112] returned an EC50 of 0.5 to 5 µM.
Turning to `CCC(C)n1ncn(-c2ccc(N3CCN(c4ccc(OC[C@@H]5CO[C@@](Cn6ncc(Cl)c(Cl)c6=O)(c6ccc(Cl)cc6Cl)O5)cc4)CC3)cc2)c1=O` (stereo partly drawn) [Compound 42], the EC50 was in the range of 5 to 30 µM.
The same measure for `CCC(C)n1ncn(-c2ccc(N3CCN(c4ccccc4OC[C@@H]4CO[C@@](Cn5nccn5)(c5ccc(Cl)cc5Cl)O4)CC3)cc2)c1=O` (stereo partly drawn) [Compound 79]: over 30 µM; for `CCC(C)n1ncn(-c2ccc(N3CCN(c4ccc(OC[C@@H]5CO[C@@](Cn6nccn6)(c6ccc(Br)cc6Br)O5)cc4)CC3)cc2)c1=O` (stereo partly drawn) [Compound 30]: 0.5 to 5 µM; for `CCC(C)n1ncn(-c2ccc(N3CCN(c4ccc(OC[C@@H]5CO[C@](CN6CCOCC6)(c6ccc(Cl)cc6Cl)O5)cc4)CC3)cc2)c1=O` (stereo partly drawn) [Compound 45]: over 30 µM.
The compound `CCC(C)n1ncn(-c2ccc(N3CCN(c4ccc(OC[C@@H]5CO[C@@](Cc6ccnnc6)(c6ccc(OC)cc6)O5)cc4)CC3)cc2)c1=O` (stereo partly drawn) [Compound 129] displayed a concentration for a half-maximal effect (EC50) of under 0.5 µM.
The same measure for `CCC(C)n1ncn(-c2ccc(N3CCN(c4ccc(OC[C@@H]5CO[C@@](Cn6nccn6)(c6ccccc6)O5)cc4)CC3)cc2)c1=O` (stereo partly drawn) [Compound 178]: under 0.5 µM; for `CCC(C)n1ncn(-c2ccc(N3CCN(c4ccc(OC[C@@H]5CO[C@@](Cn6nccn6)(c6ccccc6)O5)c(C#N)c4)CC3)cc2)c1=O` (stereo partly drawn) [Compound 65]: under 0.5 µM.
The compound `CCC(C)n1ncn(-c2ccc(N3CCN(c4ccc(OC[C@@H]5CO[C@@](Cc6ccnnc6)(c6ccc(C#N)cc6)O5)cc4)CC3)cc2)c1=O` (stereo partly drawn) [Compound 131] yielded an EC50 of over 30 µM.
`CCC(C)n1ncn(-c2ccc(N3CCN(c4ccc(OC[C@@H]5CO[C@](Cc6ccnnc6)(c6cccc(C)c6)O5)cc4)CC3)cc2)c1=O` (stereo partly drawn) [Compound 117] gave a 50% effective concentration (EC50) of 0.5 to 5 µM.
The same measure for `CC1(CCn2ncn(-c3ccc(N4CCN(c5ccc(OC[C@@H]6CO[C@@](Cn7cncn7)(c7ccc(Br)cc7)O6)cc5)CC4)cc3)c2=O)N=N1` [Compound 151]: 0.5 to 5 µM; for `CCC(C)n1ncn(-c2ccc(N3CCN(c4ccc(OC[C@@H]5CO[C@](Cc6ccnnc6)(c6ccc(OC)cc6)O5)cc4)CC3)cc2)c1=O` (stereo partly drawn) [Compound 109]: 0.5 to 5 µM.
As for `CCC(C)n1ncn(-c2ccc(N3CCN(c4ccc(OC[C@@H]5CO[C@@](Cn6cccn6)(c6ccccc6C(F)(F)F)O5)cc4)CC3)cc2)c1=O` (stereo partly drawn) [Compound 91], the figure is under 0.5 µM; as for `CCC(C)n1ncn(-c2ccc(N3CCN(c4ccc(OC[C@@H]5CO[C@@](Cn6nccn6)(c6ccc(Cl)cc6Cl)O5)cc4)CC3)c(F)c2)c1=O` (stereo partly drawn) [Compound 69], 0.5 to 5 µM.
For `CCC(C)n1ncn(-c2ccc(N3CCN(c4ccc(OC[C@@H]5CO[C@@](Cn6cccn6)(c6ccc(C#N)cc6C)O5)cc4)CC3)cc2)c1=O` (stereo partly drawn) [Compound 51], the EC50 is under 0.5 µM.
`CCC(C)n1ncn(-c2ccc(N3CCN(c4ccc(OC[C@@H]5CO[C@@](Cn6nccn6)(c6ccccc6)O5)cc4)CC3)c(C#N)c2)c1=O` (stereo partly drawn) [Compound 71] gave a concentration giving a half-maximal response (EC50) of 5 to 30 µM.
As for `CCC(C)n1ncn(-c2ccc(N3CCN(c4ccc(OC[C@@H]5CO[C@@](Cn6nccn6)(c6ccc(C#N)cc6Cl)O5)cc4)CC3)cc2)c1=O` (stereo partly drawn) [Compound 26], the figure is 5 to 30 µM.
Take `CCC(C)n1ncn(-c2ccc(N3CCN(c4ccc(OC[C@@H]5CO[C@@](Cc6ccnnc6)(c6ccc(C)cc6)O5)cc4)CC3)cc2)c1=O` (stereo partly drawn) [Compound 138]: the concentration for a half-maximal effect (EC50) is under 0.5 µM.
For the compound `CCC(C)n1ncn(-c2ccc(N3CCN(c4ccc(OC[C@@H]5CO[C@@](Cn6nccn6)(c6ccccc6)O5)c(CN)c4)CC3)cc2)c1=O` (stereo partly drawn) [Compound 68], the concentration giving a half-maximal response (EC50) is under 0.5 µM.
`CCC(C)n1ncn(-c2ccc(N3CCN(c4ccc(OC[C@@H]5CO[C@@](Cn6nccn6)(c6ccccc6)O5)cc4C(F)(F)F)CC3)cc2)c1=O` (stereo partly drawn) [Compound 60] came in with an EC50 of 5 to 30 µM.
As to `O=c1n(-c2ccc(N3CCN(c4ccc(OC[C@@H]5CO[C@@](Cn6nccn6)(c6ccccc6)O5)cc4F)CC3)cc2)cnn1CC1CCCC1` [Compound 157], the EC50 is under 0.5 µM.
As to `CCC(C)n1ncn(-c2ccc(N3CCN(c4ccc(OC[C@@H]5CO[C@](Cc6ccnnc6)(c6ccc(C#N)cc6)O5)cc4)CC3)cc2)c1=O` (stereo partly drawn) [Compound 111], the half-maximal effective concentration (EC50) lay in the range of 5 to 30 µM.
For the compound `CCC(C)n1ncn(-c2ccc(N3CCN(c4ccc(OC[C@@H]5CO[C@@](Cc6ccnnc6)(c6ccc(Cl)cc6)O5)cc4)CC3)cc2)c1=O` (stereo partly drawn) [Compound 123], the EC50 was under 0.5 µM.
As for `CC[C@H](C)n1ncn(-c2ccc(N3CCN(c4ccc(OC[C@H]5CO[C@@](Cn6nccn6)(c6ccccc6)O5)cc4)CC3)cc2)c1=O` [Compound 185], the EC50 was under 0.5 µM.
`C#CCCCn1ncn(-c2ccc(N3CCN(c4ccc(OC[C@@H]5CO[C@@](Cn6cncn6)(c6ccc(N=[N+]=[N-])cc6)O5)cc4)CC3)cc2)c1=O` [Compound 191] gave a 50% effective concentration (EC50) of 0.5 to 5 µM.
The same measure for `CCC(C)n1ncn(-c2ccc(N3CCN(c4ccc(OC[C@@H]5CO[C@](Cc6ccnnc6)(c6ccc(C)cc6)O5)cc4)CC3)cc2)c1=O` (stereo partly drawn) [Compound 118]: 5 to 30 µM.
Turning to `CCCC(C)n1ncn(-c2ccc(N3CCN(c4ccc(OC[C@@H]5CO[C@@](Cn6nccn6)(c6ccc(Cl)cc6Cl)O5)cc4)CC3)cc2)c1=O` (stereo partly drawn) [Compound 12], the EC50 lay within 0.5 to 5 µM.
`CC[C@H](C)n1ncn(-c2ccc(N3CCN(c4ccc(OC[C@H]5CO[C@](Cn6cccn6)(c6ccccc6)O5)cc4)CC3)cc2)c1=O` [Compound 170] came in with a half-maximal effective concentration (EC50) of under 0.5 µM.
`CCC(C)n1ncn(-c2ccc(N3CCN(c4ccc(OC[C@@H]5CO[C@@](Cn6cccn6)(c6cc(Cl)cc(Cl)c6)O5)cc4)CC3)cc2)c1=O` (stereo partly drawn) [Compound 80] had an EC50 of 0.5 to 5 µM.
As for `CCC(C)n1ncn(-c2ccc(N3CCCN(c4ccc(OC[C@@H]5CO[C@@](Cn6nccn6)(c6ccc(Cl)cc6Cl)O5)cc4)CC3)cc2)c1=O` (stereo partly drawn) [Compound 74], the figure is 0.5 to 5 µM; as for `CCC(C)n1ncn(-c2ccc(N3CCN(c4ccc(OC[C@@H]5CO[C@@](Cc6ccnnc6)(c6cccc(C)c6)O5)cc4)CC3)cc2)c1=O` (stereo partly drawn) [Compound 137], under 0.5 µM.
The same measure for `CCC(C)n1ncn(-c2ccc(N3CCN(c4ccc(OC[C@@H]5CO[C@@](Cn6cccn6)(c6ccc(OC)cc6)O5)cc4)CC3)cc2)c1=O` (stereo partly drawn) [Compound 87]: under 0.5 µM; for `CCC(C)n1ncn(-c2ccc(N3CCN(c4ccc(OC[C@@H]5CO[C@@](Cn6cccn6)(c6ccc(S(C)(=O)=O)cc6)O5)cc4)CC3)cc2)c1=O` (stereo partly drawn) [Compound 98]: 0.5 to 5 µM.
The same measure for `CCC(C)n1ncn(-c2ccc(N3CCN(c4ccc(OC[C@@H]5CO[C@@](Cc6ccnnc6)(c6cccc(OC)c6)O5)cc4)CC3)cc2)c1=O` (stereo partly drawn) [Compound 128]: 0.5 to 5 µM.
As to `CCC(C)n1cnn(-c2ccc(N3CCN(c4ccc(OC[C@@H]5CO[C@@](Cc6ccnnc6)(c6ccccc6)O5)cc4)CC3)cc2)c1=O` (mixture of isomers) [Compound 102], the EC50 lay within 0.5 to 5 µM.
The compound `CCC(C)n1ncn(-c2ccc(N3CCN(c4ccc(OC[C@@H]5CO[C@@](Cn6nccn6)(c6ccccc6)O5)cc4)CC3C)cc2)c1=O` (stereo partly drawn) [Compound 73] showed a 50% effective concentration (EC50) of 5 to 30 µM.
